Measurements published in PMC5218480 (PLoS ONE, 2017).

Tested on: MV-4-11 cells
Assay: Gene expression microarray analysis (Affymetrix PrimeView) and GSEA
Type: cell-based, human
Set-up: RFU PODN (11730768_x_at) / Fold change /veh PODN (11730768_x_at) / RFU LINC00158 (11744669_a_at) / Fold change /veh LINC00158 (11744669_a_at) / RFU DUSP10 (11751237_a_at) / Fold change /veh DUSP10 (11751237_a_at) / RFU ID3 (11757404_x_at) / Fold change /veh ID3 (11757404_x_at) / RFU PLEKHG5 (11737974_s_at) / Fold change /veh PLEKHG5 (11737974_s_at) / RFU LRRC4B (11730491_at) / Fold change /veh LRRC4B (11730491_at) / RFU GIMAP4 (11747438_a_at) / Fold change /veh GIMAP4 (11747438_a_at) / RFU KRT8 (11758183_x_at) / Fold change /veh KRT8 (11758183_x_at) / RFU CNN1 (11734310_a_at) / Fold change /veh CNN1 (11734310_a_at) / RFU VPS37D (11726825_at) / Fold change /veh VPS37D (11726825_at) / RFU C10orf10 (11716522_x_at) / Fold change /veh C10orf10 (11716522_x_at) / RFU KIR2DL2 /// KIR2DL4 /// KIR2DL5A /// KIR2DL5B /// KIR2DS1 /// KIR2DS2 /// KIR2DS3 /// KIR2DS4 /// KIR3DL3 /// KIR3DL3 /// KIR3DS1 (11738374_at) / Fold change /veh KIR2DL2 /// KIR2DL4 /// KIR2DL5A /// KIR2DL5B /// KIR2DS1 /// KIR2DS2 /// KIR2DS3 /// KIR2DS4 /// KIR3DL3 /// KIR3DL3 /// KIR3DS1 (11738374_at) / RFU C1QL1 (11718748_at) / Fold change /veh C1QL1 (11718748_at) / RFU TMPRSS4 (11747572_a_at) / Fold change /veh TMPRSS4 (11747572_a_at) / RFU HAMP (11756126_x_at) / Fold change /veh HAMP (11756126_x_at) / RFU RNFT2 (11725882_a_at) / Fold change /veh RNFT2 (11725882_a_at) / RFU NR4A2 (11747474_a_at) / Fold change /veh NR4A2 (11747474_a_at) / RFU ABCC12 (11746883_a_at) / Fold change /veh ABCC12 (11746883_a_at) / RFU TMEM136 (11760407_x_at) / Fold change /veh TMEM136 (11760407_x_at) / RFU CLDN22 /// WWC2 (11732394_at) / Fold change /veh CLDN22 /// WWC2 (11732394_at) / RFU HLA-DPB1 (11760878_x_at) / Fold change /veh HLA-DPB1 (11760878_x_at) / RFU SPINT1 (11716480_a_at) / Fold change /veh SPINT1 (11716480_a_at) / RFU GAP43 (11754022_s_at) / Fold change /veh GAP43 (11754022_s_at) / RFU A4GNT (11735810_at) / Fold change /veh A4GNT (11735810_at) / RFU PRB3 (11715151_x_at) / Fold change /veh PRB3 (11715151_x_at) / RFU TUBB4B (11761932_at) / Fold change /veh TUBB4B (11761932_at) / RFU CAPN14 (11732068_a_at) / Fold change /veh CAPN14 (11732068_a_at) / RFU TMCC2 (11721928_a_at) / Fold change /veh TMCC2 (11721928_a_at) / RFU IRGQ (11745062_a_at) / Fold change /veh IRGQ (11745062_a_at) / RFU FAM174B (11720279_a_at) / Fold change /veh FAM174B (11720279_a_at) / RFU TMPRSS4 (11748680_a_at) / Fold change /veh TMPRSS4 (11748680_a_at) / RFU FAM212B (11763350_a_at) / Fold change /veh FAM212B (11763350_a_at) / RFU PLEKHG5 (11743358_a_at) / Fold change /veh PLEKHG5 (11743358_a_at) / RFU ZSCAN30 (11745921_a_at) / Fold change /veh ZSCAN30 (11745921_a_at) / RFU CMKLR1 (11741424_a_at) / Fold change /veh CMKLR1 (11741424_a_at) / RFU LOC101060620 /// MAPK8IP1 (11723275_at) / Fold change /veh LOC101060620 /// MAPK8IP1 (11723275_at) / RFU SPTSSB (11747773_x_at) / Fold change /veh SPTSSB (11747773_x_at) / RFU PRSS12 (11739890_at) / Fold change /veh PRSS12 (11739890_at) / RFU BIN1 (11741810_x_at) / Fold change /veh BIN1 (11741810_x_at) / RFU WNT11 (11732464_a_at) / Fold change /veh WNT11 (11732464_a_at) / RFU C10orf10 (11716521_a_at) / Fold change /veh C10orf10 (11716521_a_at) / RFU C5orf56 (11738089_at) / Fold change /veh C5orf56 (11738089_at) / RFU CYB561 (11721691_x_at) / Fold change /veh CYB561 (11721691_x_at) / RFU ANKRD19P (11752326_a_at) / Fold change /veh ANKRD19P (11752326_a_at) / RFU OR2T12 /// OR2T33 /// OR2T8 (11738714_s_at) / Fold change /veh OR2T12 /// OR2T33 /// OR2T8 (11738714_s_at) / RFU VCAN (11748164_a_at) / Fold change /veh VCAN (11748164_a_at) / RFU JSRP1 (11732532_at) / Fold change /veh JSRP1 (11732532_at) / RFU KRTAP10-11 (11738290_x_at) / Fold change /veh KRTAP10-11 (11738290_x_at) / RFU MYO3A (11730013_a_at) / Fold change /veh MYO3A (11730013_a_at) / RFU EBF3 (11725865_a_at) / Fold change /veh EBF3 (11725865_a_at) / RFU CAMK2N1 (11719241_x_at) / Fold change /veh CAMK2N1 (11719241_x_at) / RFU C5orf56 (11738088_a_at) / Fold change /veh C5orf56 (11738088_a_at) / RFU OLFML3 (11715873_a_at) / Fold change /veh OLFML3 (11715873_a_at) / RFU LOC100653217 /// NTM (11731650_a_at) / Fold change /veh LOC100653217 /// NTM (11731650_a_at) / RFU MAPK11 (11762145_a_at) / Fold change /veh MAPK11 (11762145_a_at) / RFU FIZ1 (11724087_x_at) / Fold change /veh FIZ1 (11724087_x_at) / RFU OASL (11726364_x_at) / Fold change /veh OASL (11726364_x_at) / RFU SOX15 (11748057_x_at) / Fold change /veh SOX15 (11748057_x_at) / RFU CD79A (11719716_a_at) / Fold change /veh CD79A (11719716_a_at) / RFU HIST1H1D (11736915_at) / Fold change /veh HIST1H1D (11736915_at) / RFU CASKIN2 (11723855_a_at) / Fold change /veh CASKIN2 (11723855_a_at) / RFU LOC730098 (11760151_x_at) / Fold change /veh LOC730098 (11760151_x_at) / RFU OR4N2 (11742367_at) / Fold change /veh OR4N2 (11742367_at) / RFU PRRT2 (11749266_a_at) / Fold change /veh PRRT2 (11749266_a_at) / RFU SNX32 (11753110_a_at) / Fold change /veh SNX32 (11753110_a_at) / RFU CDHR5 (11726645_a_at) / Fold change /veh CDHR5 (11726645_a_at) / RFU RCAN1 (11760418_a_at) / Fold change /veh RCAN1 (11760418_a_at) / RFU FAM167A (11723789_a_at) / Fold change /veh FAM167A (11723789_a_at) / RFU FAM26E (11764081_at) / Fold change /veh FAM26E (11764081_at) / RFU ISYNA1 (11749810_s_at) / Fold change /veh ISYNA1 (11749810_s_at) / RFU ACY1 (11761880_at) / Fold change /veh ACY1 (11761880_at) / RFU 11764098_at / Fold change /veh 11764098_at / RFU SAMD14 (11745864_x_at) / Fold change /veh SAMD14 (11745864_x_at) / RFU NPB (11741838_a_at) / Fold change /veh NPB (11741838_a_at) / RFU TMPRSS6 (11731388_a_at) / Fold change /veh TMPRSS6 (11731388_a_at) / RFU KRTAP10-2 (11738614_at) / Fold change /veh KRTAP10-2 (11738614_at) / RFU ARHGAP8 /// PRR5-ARHGAP8 (11727945_x_at) / Fold change /veh ARHGAP8 /// PRR5-ARHGAP8 (11727945_x_at) / RFU KRTAP5-7 /// NADSYN1 (11734609_at) / Fold change /veh KRTAP5-7 /// NADSYN1 (11734609_at) / RFU RASL12 (11751679_a_at) / Fold change /veh RASL12 (11751679_a_at) / RFU CDKN2B (11736163_a_at) / Fold change /veh CDKN2B (11736163_a_at) / RFU PRF1 (11729649_at) / Fold change /veh PRF1 (11729649_at) / RFU, ZNF638 /// ZNF638-IT1 / Fold change vs veh, ZNF638 /// ZNF638-IT1 / RFU, PANK3 / Fold change vs veh, PANK3 / RFU, SH3YL1 / Fold change vs veh, SH3YL1 / RFU, ZEB2 / Fold change vs veh, ZEB2 / RFU, NRIP1 / Fold change vs veh, NRIP1 / RFU, PTTG1IP / Fold change vs veh, PTTG1IP / RFU, CAPN2 / Fold change vs veh, CAPN2 / RFU, MED14 / Fold change vs veh, MED14 / RFU, SNORA58 / Fold change vs veh, SNORA58 / RFU, C1orf63 / Fold change vs veh, C1orf63 / RFU, LRRFIP1 / Fold change vs veh, LRRFIP1 / RFU, NDUFAF7 / Fold change vs veh, NDUFAF7 / RFU, SLC12A2 / Fold change vs veh, SLC12A2 / RFU, IBTK / Fold change vs veh, IBTK / RFU, ESF1 / Fold change vs veh, ESF1 / Fold change vs veh, TMEM50B / RFU, TAOK1 / Fold change vs veh, TAOK1 / RFU, ACBD3 / Fold change vs veh, ACBD3 / RFU, TMA16 / Fold change vs veh, TMA16 / RFU, RWDD3 / Fold change vs veh, RWDD3 / RFU, BCAT1 / Fold change vs veh, BCAT1 / RFU, EDEM3 / Fold change vs veh, EDEM3 / RFU, TMEM33 / Fold change vs veh, TMEM33 / RFU, WDR75 / Fold change vs veh, WDR75 / RFU, AHCTF1 / Fold change vs veh, AHCTF1 / RFU, TFRC / Fold change vs veh, TFRC / RFU, ZDHHC17 / Fold change vs veh, ZDHHC17 / RFU, NOM1 / Fold change vs veh, NOM1 / RFU, ARL8B / Fold change vs veh, ARL8B / RFU, ZBTB11 / Fold change vs veh, ZBTB11 / RFU, TAMM41 / Fold change vs veh, TAMM41 / RFU, KIAA1704 /// LOC100996395 / Fold change vs veh, KIAA1704 /// LOC100996395 / RFU, ING1 / Fold change vs veh, ING1 / RFU, TRMT61B / Fold change vs veh, TRMT61B / RFU, FUBP3 / Fold change vs veh, FUBP3 / RFU, TP53 / Fold change vs veh, TP53 / RFU, TNKS2 / Fold change vs veh, TNKS2 / RFU, ZFP14 / Fold change vs veh, ZFP14 / RFU, ACTR2 / Fold change vs veh, ACTR2 / RFU, PPP3R1 / Fold change vs veh, PPP3R1 / RFU, PIK3R1 / Fold change vs veh, PIK3R1 / RFU, HNRNPA1 / Fold change vs veh, HNRNPA1 / RFU, RNF170 / Fold change vs veh, RNF170 / RFU, ZNF28 / Fold change vs veh, ZNF28 / RFU, RNGTT / Fold change vs veh, RNGTT / RFU, OGT / Fold change vs veh, OGT / RFU, BRD1 / Fold change vs veh, BRD1 / RFU, MARS / Fold change vs veh, MARS / RFU, ZNF655 / Fold change vs veh, ZNF655 / RFU, FAHD1 / Fold change vs veh, FAHD1 / RFU, BDP1 / Fold change vs veh, BDP1 / RFU, LRRCC1 / Fold change vs veh, LRRCC1 / RFU, ARID1A / Fold change vs veh, ARID1A / RFU, ZNF146 / Fold change vs veh, ZNF146 / RFU, ZNF330 / Fold change vs veh, ZNF330 / RFU, GPN3 / Fold change vs veh, GPN3 / RFU, C9orf123 / Fold change vs veh, C9orf123 / RFU, N4BP2L2 / Fold change vs veh, N4BP2L2 / RFU, ARFIP1 / Fold change vs veh, ARFIP1 / RFU, FAM179B / Fold change vs veh, FAM179B / RFU, BCL10 / Fold change vs veh, BCL10 / RFU, UHRF1BP1L / Fold change vs veh, UHRF1BP1L / RFU, BET1 / Fold change vs veh, BET1 / RFU, CNOT2 / Fold change vs veh, CNOT2 / RFU, ZNF268 / Fold change vs veh, ZNF268 / Fold change vs veh, ZNF507 / RFU, DGCR2 / Fold change vs veh, DGCR2 / RFU, WDSUB1 / Fold change vs veh, WDSUB1 / Fold change vs veh, HSP90B1 /// MIR3652 / RFU, ADSS / Fold change vs veh, ADSS / RFU, GK / Fold change vs veh, GK / RFU, ZNF148 / Fold change vs veh, ZNF148 / RFU, TAF9 / Fold change vs veh, TAF9 / RFU, SLC1A5 / Fold change vs veh, SLC1A5 / RFU, SLMO2 / Fold change vs veh, SLMO2 / RFU, ABCC4 / Fold change vs veh, ABCC4 / RFU, LOC101060439 /// RAP1B / Fold change vs veh, LOC101060439 /// RAP1B / RFU, RFX7 / Fold change vs veh, RFX7 / RFU, GTPBP10 / Fold change vs veh, GTPBP10 / RFU, CNEP1R1 / Fold change vs veh, CNEP1R1 / RFU, BIVM-ERCC5 /// ERCC5 / Fold change vs veh, BIVM-ERCC5 /// ERCC5 / RFU, ILF3 / Fold change vs veh, ILF3 / RFU 11762660_at / Fold change /veh 11762660_at / RFU VCAN (11757783_s_at) / Fold change /veh VCAN (11757783_s_at) / RFU DDX43 (11728927_at) / Fold change /veh DDX43 (11728927_at) / RFU KRT8 (11758188_x_at) / Fold change /veh KRT8 (11758188_x_at) / RFU NKD1 (11759106_at) / Fold change /veh NKD1 (11759106_at) / RFU SRD5A1 (11742802_a_at) / Fold change /veh SRD5A1 (11742802_a_at) / RFU TPSAB1 /// TPSB2 (11721975_s_at) / Fold change /veh TPSAB1 /// TPSB2 (11721975_s_at) / RFU GSTM3 (11746129_a_at) / Fold change /veh GSTM3 (11746129_a_at) / RFU IL23R (11737362_x_at) / Fold change /veh IL23R (11737362_x_at) / RFU TMEM51 (11727254_a_at) / Fold change /veh TMEM51 (11727254_a_at) / RFU PIWIL2 (11732686_x_at) / Fold change /veh PIWIL2 (11732686_x_at) / RFU ORM1 (11744905_x_at) / Fold change /veh ORM1 (11744905_x_at) / RFU CCDC152 (11743942_at) / Fold change /veh CCDC152 (11743942_at) / RFU ECM1 (11717891_a_at) / Fold change /veh ECM1 (11717891_a_at) / RFU IL23R (11748794_a_at) / Fold change /veh IL23R (11748794_a_at) / RFU TNFAIP8L3 (11732012_x_at) / Fold change /veh TNFAIP8L3 (11732012_x_at) / RFU MBOAT4 (11741988_at) / Fold change /veh MBOAT4 (11741988_at) / RFU 11764193_at / Fold change /veh 11764193_at / RFU TMEM53 (11763286_at) / Fold change /veh TMEM53 (11763286_at) / RFU MAGEB2 (11727129_at) / Fold change /veh MAGEB2 (11727129_at) / RFU TMEM200A (11744735_a_at) / Fold change /veh TMEM200A (11744735_a_at) / RFU CCDC152 (11751479_a_at) / Fold change /veh CCDC152 (11751479_a_at) / RFU FAM211A (11726209_a_at) / Fold change /veh FAM211A (11726209_a_at) / RFU RGS16 (11746705_a_at) / Fold change /veh RGS16 (11746705_a_at) / RFU VCAN (11755009_s_at) / Fold change /veh VCAN (11755009_s_at) / RFU RHOB (11743442_s_at) / Fold change /veh RHOB (11743442_s_at) / RFU RGS16 (11720943_a_at) / Fold change /veh RGS16 (11720943_a_at) / RFU RGS16 (11720944_at) / Fold change /veh RGS16 (11720944_at) / RFU, VPS4B / Fold change vs veh, VPS4B / RFU, CREB1 / Fold change vs veh, CREB1 / RFU, DNAJC13 / Fold change vs veh, DNAJC13 / RFU, GNAQ / Fold change vs veh, GNAQ / RFU, CDK5R1 / Fold change vs veh, CDK5R1 / RFU, ZRANB3 / Fold change vs veh, ZRANB3 / RFU, CUL4A / Fold change vs veh, CUL4A / RFU, CCNY / Fold change vs veh, CCNY / RFU, UFL1 / Fold change vs veh, UFL1 / RFU, COG3 / Fold change vs veh, COG3 / RFU, DIAPH2 / Fold change vs veh, DIAPH2 / RFU, SKA2 / Fold change vs veh, SKA2 / RFU, AFF3 / Fold change vs veh, AFF3 / RFU, LMF1 / Fold change vs veh, LMF1 / RFU, IPO11 / Fold change vs veh, IPO11 / RFU, DFFB / Fold change vs veh, DFFB / RFU, FOXP1 / Fold change vs veh, FOXP1 / RFU, CARD8 / Fold change vs veh, CARD8 / RFU, STRN3 / Fold change vs veh, STRN3 / RFU, ADK / Fold change vs veh, ADK / RFU, RASSF2 / Fold change vs veh, RASSF2 / RFU, WIPF1 / Fold change vs veh, WIPF1 / RFU, LARP1B / Fold change vs veh, LARP1B / RFU, RASA1 / Fold change vs veh, RASA1 / RFU, RB1 / Fold change vs veh, RB1 / RFU, PPFIA1 / Fold change vs veh, PPFIA1 / RFU, MAT2A / Fold change vs veh, MAT2A / RFU, CCT5 / Fold change vs veh, CCT5 / RFU, WDR92 / Fold change vs veh, WDR92 / RFU, CUX1 / Fold change vs veh, CUX1 / RFU, TTC7A / Fold change vs veh, TTC7A / RFU, TMEM135 / Fold change vs veh, TMEM135 / RFU, DEPTOR / Fold change vs veh, DEPTOR / RFU, CPM / Fold change vs veh, CPM / RFU, DNAJB6 / Fold change vs veh, DNAJB6 / RFU, CACNA2D3 / Fold change vs veh, CACNA2D3 / RFU, DTX4 / Fold change vs veh, DTX4 / RFU, TFCP2 / Fold change vs veh, TFCP2 / RFU, GMCL1 /// GMCL1P1 / Fold change vs veh, GMCL1 /// GMCL1P1 / RFU, AEBP2 / Fold change vs veh, AEBP2 / RFU, SNHG1 /// SNORD22 /// SNORD25 /// SNORD26 /// SNORD27 /// SNORD28 /// SNORD29 /// SNORD31 / Fold change vs veh, SNHG1 /// SNORD22 /// SNORD25 /// SNORD26 /// SNORD27 /// SNORD28 /// SNORD29 /// SNORD31 / Fold change (Aza/veh), C12orf56 (ProbeSet 11735607_a_at) / Fold change (ACY-1035/veh), C12orf56 (ProbeSet 11735607_a_at) / Fold change (Aza/veh), FGFR1OP (ProbeSet 11751329_s_at) / Fold change (ACY-1035/veh), FGFR1OP (ProbeSet 11751329_s_at) / Fold change (Aza/veh), VPS36 (ProbeSet 11739960_a_at) / Fold change (ACY-1035/veh), VPS36 (ProbeSet 11739960_a_at) / RFU SYPL1 (11715823_x_at) / Fold change /veh SYPL1 (11715823_x_at) / RFU IGFBP7 (11715501_s_at) / Fold change /veh IGFBP7 (11715501_s_at) / RFU REEP3 (11722064_at) / Fold change /veh REEP3 (11722064_at) / RFU IGLL1 (11728026_x_at) / Fold change /veh IGLL1 (11728026_x_at): dose or concentration left out as unconfirmed
Conditions: ProbeSet 11734782_x_at; LIST D

Nc1ncn([C@@H]2O[C@H](CO)[C@@H](O)[C@H]2O)c(=O)n1 [azacitidine]
RFU, WDR92: 49.30 RFU
